From patent US20240277743A1, “RESTORING PHYSIOLOGY WITH SMALL MOLECULE MIMICS OF MISSING PROTEINS” (The Board of Trustees Of The University Of Illinois, priority 2014, published 2024)

Experiments:
trk1Δtrk2Δ cells [1] = assay: Disc diffusion assay of growth rescue; format: cell-based, Saccharomyces cerevisiae; settings: paper disc impregnated with AmB; FIG. 2C
Experimental: Disc diffusion assay. The assay was performed as previously described. National Committee for Clinical Laboratory Standards in Performance Standards for Antimicrobial Disk Susceptibility Tests; M2-A8 Approved Standard (NCCLS, Wayne) (2003).

trk1Δtrk2Δ cells [2] = assay: 86Rb+ uptake assay; format: cell-based, Saccharomyces cerevisiae; settings: 3 μM; FIG. 2F
Experimental: ^86Rb^+ uptake assay. The procedure for 86Rb uptake was adapted from Mulet, J. M. et al. Mol. Cell. Biol. 19, 3328-3337 (1999). Overnight yeast cultures were grown as described above. The supernatant was poured off, and the cells were resuspended in sterile water. This wash was repeated two more times. The cells were then resuspended in 40 mL of the potassium starvation/uptake buffer (50 mM succinic acid, 2% glucose, adjusted to pH 5.5 with Tris). After 3 hour incubation in the potassium starvation buffer, cells were centrifuged and washed twice with sterile water. Cells were resuspended in 1 mL of the potassium starvation/uptake buffer. Cell concentration was determined using an INCYTO®; Neubauer disposable hemocytometer, and wild type S. cerevisiae and trk1Δtrk2Δ cells were diluted to the same cell density. 700 μL of the yeast suspension was added to a 1.5 mL Eppendorf tube. After a 5 minute pre-incubation in the potassium starvation/uptake medium, AmB or C35deOAmB was added (final concentration 3 μM) as a DMSO solution. ^86RbCl (1.1 μCi) was then added to the reaction mixtures. Reaction mixtures were vortexed to ensure a homogeneous solution. […] Moist filters were transferred to plastic vials for measuring radioactivity. Radioactivity was monitored using a Perkin Elmer Wizard automatic gamma counter. […]

[3] = system: CuFi-1 epithelial monolayers (CFTR-deficient human lung epithelia); assay: Airway surface liquid (ASL) height studies by confocal fluorescence microscopy; format: cell-based
Experimental: Human cell lines and growth conditions. NuLi and CuFi-1 cells were cultured at the air-liquid interface as previously described, using a 1:1 mixture of DMEM: Ham's F-12 supplemented with 2% v/v Ultroser G (Crescent Chemical). Zabner, J. et al. Am. J. Physiol. Lung Cell. Mol. Physiol. 284, […]-[…] (2003). The membrane supports used were Millicell 0.4 μm PCF inserts (Millipore PIHP01250) for Ussing chamber studies, Corning Costar 0.4 μm Transwell Clear Polyester Membrane inserts (Corning 3470) for rotational mucus transport studies, and Millicell 1.0 μm PCF inserts (Millipore PIRP15R48) for ASL studies. These membranes were allowed to mature at an air-liquid interface for a minimum of 14 days to reach full differentiation. Airway surface liquid (ASL) height studies. ASL height was studied using an established fluorescent dye assay. Worthington, E. N. et al. Methods Mol. Biol. 742, 77-92 (2011); Myerburg. M. M. et al. Am. J. Respir. Cell. Mol. Biol. 42, 676-684 (2010). Mature, differentiated membranes were grown on Millicell […] polyethylene terephthalate hanging cell culture inserts. Wild type (NuLi) lung epithelia were treated with perfluorocarbon (FC-72) vehicle, and CuFi epithelia were treated with vehicle or 500 nM AmB and incubated for 24 hours at 37° ° C. On the day of imaging. 2.5 μL of a 70 kDa Texas Red-dextran conjugate (Molecular Probes) solution in PBS was added to the apical side of the membranes, followed by 100 μL of FC-770 to prevent evaporation. These were placed on 100 μL of PBS on a 10 mm glass bottom Fluorodish for imaging (World Precision Instruments). Membranes were imaged immediately after dye addition and again at 24 hours to examine dye absorption. Three Z-stack images per membrane in biological n=6 were taken on an Zeiss LSM700 confocal microscope at 40× oil immersion. These images were analyzed using ImageJ to determine the area of fluorescence in the left hand 200-micron width of each image. Images were converted to 8-bit, Gaussian Blur was applied, and made binary. The parameters for Analyze Particles were particles from 1-Infinity μm^2 in size and from 0%-100% circularity.

trk1Δtrk2Δ S. cerevisiae = assay: Growth of trk1Δtrk2Δ yeast on normal potassium YPAD agar plates containing AmB; format: cell-based, Saccharomyces cerevisiae; settings: 125 nM in agar, normal potassium (10 mM)
Experimental: Yeast cell lines and growth conditions. Wild type S. cerevisiae (ATCC 9763), and trk1Δtrk2Δ S. cerevisiae (SGY 1528) were maintained with yeast peptone adenine dextrose (YPAD) growth media consisting of 10 g/L yeast extract, 20 g/L peptone, 20 g/L dextrose, 0.015 g/L adenine hemisulfate salt (final potassium concentration=10 mM). For solid media, 20 g/L agar was added to this same mixture. To culture trk1 Δtrk2Δ S. cerevisiae, additional potassium was added as potassium chloride (100 mM KCl). The media was adjusted to pH 5.0 using citric acid. After autoclave sterilization, dextrose was subsequently added as a sterile 20% w/v solution in water (dextrose solutions were filter-sterilized using a 0.22 μm filter). Liquid cultures were incubated at 30° C. on a rotary shaker (200 rpm). Solid cultures were maintained at 30° C. in an incubator. For solid media containing AmB (AK Scientific), the media was allowed to cool for 15 minutes before addition of AmB at a final concentration of 125 nM. AmB was added to the media as a solution in DMSO. Plates were examined for growth after 24-48 hours of incubation.

trk1Δtrk2Δ yeast = assay: Functional complementation of a protein with a small molecule assay (rescue broth microdilution); format: cell-based, Saccharomyces cerevisiae
Excerpt: Broth microdilution minimum inhibitory concentration (MIC) assay. The protocol for the MIC broth microdilution assay was adapted from the Clinical and Laboratory Standards Institute document M27-A2 and performed as previously described. Gray, K. C. et. al. Proc. Natl. Acad. Sci. U.S.A. 109, 2234-2239 (2012); Palacios, D. S. et al. J. Am. Chem. Soc. 129, 13804-13805 (2007).
Functional complementation of a protein with a small molecule assay. The protocol for the rescue broth microdilution assay was conducted as described in the MIC assay above with the following additions: trk1atrk2Δ yeast were grown in high potassium (100 mM) YPAD liquid media overnight and transferred to normal potassium YPAD liquid media containing vehicle or the indicated concentration of AmB.

C[C@@H]1[C@H](O)[C@@H](C)/C=C/C=C/C=C/C=C/C=C/C=C/C=C/[C@H](O[C@@H]2O[C@H](C)[C@@H](O)[C@H](N)[C@@H]2O)C[C@@H]2O[C@](O)(C[C@@H](O)C[C@@H](O)[C@H](O)CC[C@@H](O)C[C@@H](O)CC(=O)O[C@H]1C)C[C@H](O)[C@H]2C(=O)O [AmB, amphotericin B]
growth rescue in disc diffusion assay (trk1Δtrk2Δ cells [1]): dependence of the growth rescue on the concentration of AmB
86Rb+ uptake in trk1Δtrk2Δ cells (trk1Δtrk2Δ cells [2]): uptake was restored
apical surface liquid (ASL) volume of CF epithelia ([3]; 500 nM): normal ASL volume was restored
ASL height of CuFi-1 epithelia, compound added apically ([3]; 500 nM AmB, 24 hours, FIGS. 5A, 5B): normal ASL height was restored
dose dependence of ASL restoration ([3]; CuFi-1 epithelia, FIG. 5C): dose-dependent fashion
optimal dose for ASL restoration ([3]; CuFi-1 epithelia, FIG. 5C): 0.5 µM
ASL height of CuFi-1 epithelia, compound added to the basolateral surface ([3]; FIG. 5B): no increase in ASL height
restoration of growth of the trk1Δtrk2Δ mutant on agar plate (trk1Δtrk2Δ S. cerevisiae): restored vigorous growth
trk1Δtrk2Δ yeast cell growth in broth dilution assay (trk1Δtrk2Δ yeast; at or above the minimum inhibitory concentration): no growth
trk1Δtrk2Δ yeast cell growth in broth dilution assay (trk1Δtrk2Δ yeast; intermediate concentrations, normal potassium YPAD, FIG. 2D): dose-dependent increase of growth
